The conditions of experiment [1]: in vivo; cited from earlier work.
Another experiment has as its system 3T3-L1 preadipocytes. The experiment in a line: adipocyte differentiation blocking assay (GPDH level in cell lysates). The class given is cell-based, mouse. The following applies: after 10-fold dilution (FIG. 6). From the text: The adipocyte differentiation blocking assay is an enzyme assay that examines the ability of compounds to block differentiation of preadipocytes to adipocytes by quantifying the level of GPDH in cell lysates (inhibition of adipogenesis). Based on preliminary results using this assay, we selected two plant extracts (designated as PM765, and as PM902, respectively) and collected eluant fractions isolated by HPLC, the extracts being divided into 40 or 120 fractions in collection wells (collected at 30 second or 1 minute HPLC eluant flow time intervals) (FIG. 3). […] MDI treatment is defined as Differentiation media causes the 3T3-L1 preadipocytes (fibroblast cells) to differentiate into adipocytes (fat cells). Differentiation media is composed of: • Per 100 ml of differentiation media • 90 mL DMEM media • 10 mL FCS • 1% pen/strep • 1 ml methylisobutylxanthine (stock 11.5 mg/mL) • 100 ul dexamethasone (stock 0.4 mg/mL) • 1 ml insulin (stock 1 mg/mL)
Inhibition of adipocyte differentiation is assayed by measuring the levels of the enzyme glycerol-3-phosphate dehydrogenase (GPDH). […]
In this assay pre-adipocyte cells require 10 to 15 days to differentiate into adipocytes. […] After cells have undergone the 10–15 days required to differentiate, cells are assessed for GPDH activity.
Results are expressed as a percentage of the untreated control average. […]

A further experiment concerns adipocytes. The experiment in a line: assays of this invention (lipolysis, adipocyte differentiation, de-differentiation). In kind it is cell-based, mouse. How it is done:
Assay 1. Lipolysis Assay.
In this assay, pre-adipocyte cells are seeded in 96-well plates and are induced to convert to adipocytes over the course of a 10–15 day treament with lipolytic reagents. After cells have converted to adipocytes, the cells are starved, and then subsequently treated with or exposed to test compounds or mixtures of compounds or extracts of plants or fractionated extracts of plants. The adipocytes are treated with test compounds in the presence of a surrounding cell medium. Over the course of 1 to 3 hours after exposure to the test compounds or mixture of compounds, the amount of glycerol present in the cell medium is measured. Glycerol and fatty acids are hydrolysis products of triglycerides, and glycerol is released from cells after enzymatic hydrolysis or breakdown of lipids.
Assay 2. […]
In this assay pre-adipocyte cells require 10 to 15 days to differentiate into adipocytes. […] After cells have undergone the 10–15 days required to differentiate, cells are assessed for GPDH activity. […]
This assay comprises a colorimetric assay to screen for compounds and mixtures of compounds that induce the differentiation of adipocytes to preadipocytes. The presence of such compounds is determined by measuring the relative levels of the enzyme GPDH. […] GPDH levels present in the cells are measured to determine if the cells still express the adipocyte phenotype. […]

The subject of another experiment is leptin. Conditions: cited from earlier work.
For another experiment, the system named is 3T3-L1 cells. Conditions: GPDH activity, oil red O staining; cited from earlier work.

In the case of `CCCCCCCCCCC[C@@H](C[C@@H]1OC(=O)[C@H]1CCCCCC)OC(=O)[C@H](CC(C)C)NC=O` [Orlistat], the “decrease of the amount of fat absorbed from the diet” value in experiment [1] is “about 30%”.

As for `C=C[C@](C)(O)CC[C@@H]1[C@@]2(C)CCCC(C)(C)[C@@H]2CC[C@@]1(C)O` [sclareol, labdane-14-ene-8,13-diol], the “blocking of adipocyte differentiation, as a percent of positive control” value in the experiment with 3T3-L1 preadipocytes is listed as “blocking of adipocyte differentiation”. Also, in the experiment on adipocytes, the “activity in the assays of this invention” value is “active”.

`CC1(C)CCC[C@]2(C)[C@H]3CC(=O)O[C@]3(C)CC[C@@H]12` [sclareolide, 3aR-[3a-alpha, 5a-beta, 9a-alpha, 9b-alpha]-decahydro-3a,6,6,9a-tetramethylnaphtho[2,1-b]furane-2(1H)-one]: the “blocking of adipocyte differentiation, as a percent of positive control” value with 3T3-L1 preadipocytes was “blocking of adipocyte differentiation”. The “activity in the assays of this invention” value with adipocytes was “active”.

With “myostatin: adipocyte blocking agent, inhibitor of skeletal muscle growth, member of the TGF-β superfamily”, the “effect on leptin levels” value with leptin is listed as “no effect”. In addition, the differentiation of preadipocytes result in the experiment with 3T3-L1 cells was “inhibits differentiation of preadipocytes”.
